Laboratory results taken from US20130202619A1, “METHODS AND MATERIALS FOR REDUCING LIVER FIBROSIS” (MAYO FOUNDATION FOR MEDICAL EDUCATION AND RESEARCH, priority 2010, published 2013).
Where “and” joins values, the source holds several entries; their conditions need not be identical. Equal values may be shown once. Entries after “also recorded” stand apart in the source; their conditions may differ.

Tests used:
Assay type in all cases: cell-based, human
HuH7 cells [1] = assay: Lumican gene expression in HuH7 cells exposed to free fatty acids (real-time PCR); conditions: 400 μM fatty acid, 6 hours
Description: (§1) The hepatocyte cell line HuH7, the cholangiocyte cell line H69, and the hepatic stellate cell line LX2 were grown to confluence in DMEM with 10% fetal bovine serum and antibiotics Penicillin (100 U/mL) and Streptomycin (10 μg/mL) at 37° C. and 5% CO2 Cells were harvested, washed in cold phosphate buffered saline and snap frozen. […] At 24, 48 and 72 hours, cells were trypsin digested, washed three times with ice cold phosphate buffered saline and quick frozen at −80° C. in two separate lots for either protein or RNA extraction. In separate experiments, palmitic or stearic acid was added to the culture media of HuH7 cells at a concentration of 400 μM (Cazanave et al., J. Biol. Chem., 284:26591-26602 (2009)). All experiments were carried out in triplicate and results are reported as the average of triplicates.
(§2) Total RNA was isolated from cells collected from the cell culture experiments (described herein) or from liver tissue samples collected from patient or from mouse experiments (described herein) using the RNeasy Plus kit as per the manufacturer's instructions (Qiagen, GmbH, Germany). 500 ng of total RNA was reverse transcribed into cDNA using random hexamers (Transcriptor High Fidelity cDNA synthesis kit, Roche, USA). Real time PCR was carried on a LightCycler (Roche, CA, USA) using equal quantities of template cDNA in a total volume of 20 μL using Lightcycler FastStart DNA Master SYBR green1 (Roche, Indianapolis, USA). Expression of 18S rRNA was used as the internal standard (Quantum RNA 18S Internal Standards, Ambion Inc, Austin, Tex., USA). Standard curves were generated for each optimized assay using known PCR copy numbers to produce a linear plot of threshold cycle (Ct) against log dilution. Data for lumican is presented as lumican copy number normalized against the 18S absolute copy number where indicated. For all other gene expression assays, results are presented as fold change as represented by the expression 2^−ΔΔCt (Schmittgen & Livak, Nat. Protoc., 3:1101-1108 (2008)).
Gene expression data presented as copy number are expressed as mean±standard error. […]

HuH7 cells [2] = assay: Response of HuH7 cells to TGFβ1 (gene expression by real-time PCR, cell fate)
Description: as §1, §2
(§3) HuH7 or LX2 cells were plated at uniform density in single well chamber slides adopting the same protocol as for cell culture described above. At time points of 0, 24, 48, and 72 hours post seeding, medium was aspirated, slides were washed with phosphate buffered saline, air dried and stored at −80° C. until staining. Briefly, cells were fixed in acetone, followed by 1% paraformaldehyde. Cells were immunostained with anti human lumican at dilution of 1:50 (Santa Cruz, USA) and detected with appropriate FITC labeled secondary antibodies (MP Biomedicals, OH, USA). Negative controls consisted of identical treatments with omission of primary antibody. DAPI was used for nuclear staining (Sigma, MO, USA). Images were captured on an Olympus microscope with appropriate filter settings for FITC (green) and DAPI (blue).
(§4) Gene expression data presented as copy number are expressed as mean±standard error. Fold changes represent values normalized to 18S and to time point of 0 hours. To assess significance of difference between treatments, the paired 2-tailed student's test with equal variance was used. A p value of <0.05 was considered statistically significant.

LX2 cells = assay: Response of LX2 cells to TGFβ1 (gene expression by real-time PCR, cell fate)
Description: as §1, §2, §3, §4

[3] = HuH7 cells, TGFβ1 2 ng/mL, 48 hours

| Molecule | increase in lumican expression (HuH7 cells [1]) | increase in lumican expression (HuH7 cells [1]; listed as palmitic) | increase in collagen 1α1 gene expression (HuH7 cells [2]; HuH7 cells, TGFβ1 2 ng/mL, 24 hours) | increase in collagen 1α1 gene expression (HuH7 cells [2]; [3]) | increase in lumican gene expression (HuH7 cells [2]; [3]) | increase in lumican gene expression over baseline (HuH7 cells [2]; HuH7 cells, TGFβ1 2 ng/mL, 72 hours) | cell fate (apoptosis / proliferation) (HuH7 cells [2]; HuH7 cells, TGFβ1 2 ng/mL, over 72 hours) | decrease in albumin production (HuH7 cells [2]; HuH7 cells, TGFβ1, 24 hours) | increase in alpha smooth muscle actin expression (HuH7 cells [2]; HuH7 cells, TGFβ1, 48 hours) | decrease in albumin production (HuH7 cells [2]; HuH7 cells, TGFβ1, 48 hours (48-72 hours)) | beta 1 integrin expression (HuH7 cells [2]; HuH7 hepatocytes, TGFβ1 2 ng/mL, up to 72 hours) | increase in lumican gene expression over baseline (LX2 cells; LX2 cells, TGFβ1 2 ng/mL, 72 hours) | cell fate (apoptosis / proliferation) (LX2 cells; LX2 cells, TGFβ1 2 ng/mL, over 72 hours) | increase in alpha smooth muscle actin expression (LX2 cells; LX2 cells, TGFβ1, 48 hours) | increase in collagen 1α1 gene expression (LX2 cells; LX2 stellate cells, TGFβ1 2 ng/mL, 24 hours) | increase in collagen 1α1 gene expression (LX2 cells; LX2 stellate cells, TGFβ1 2 ng/mL, 48 hours) | beta 1 integrin expression (LX2 cells; LX2 stellate cells, TGFβ1 2 ng/mL, up to 72 hours) |
| --- | --- | --- | --- | --- | --- | --- | --- | --- | --- | --- | --- | --- | --- | --- | --- | --- | --- |
| CCCCCCCCCCCCCCCC(=O)O [palmitic acid] | 3.1 fold | three fold | – | – | – | – | – | – | – | – | – | – | – | – | – | – | – |
| CCCCCCCCCCCCCCCCCC(=O)O [stearic acid] | 1.9 fold and 2 fold | – | – | – | – | – | – | – | – | – | – | – | – | – | – | – | – |
| TGFβ1: pro-fibrotic cytokine transforming growth factor β1 (R&D systems), used at 2 ng/mL | – | – | 9 fold | > 100 fold | four fold | 15 fold and 14 fold | underwent apoptosis | 10 fold | fourfold; also recorded: four fold | five fold; also recorded: four fold | no change | 27 fold | continued to proliferate | 4.5 fold | 4 fold | 5 fold | gradual increase |
